Test system: IL-8 secretion induced by LPS in peripheral blood neutrophils
Assay: Inhibition of IL-8 secretion induced by LPS in isolated peripheral blood neutrophils (ELISA)
Format: cell-based
Conditions: Homo sapiens, Neutrophil; for inhibition at 10 pM: single agent 0.01 nM
Procedure: 5 Healthy subjects were included for leukocyte experiments. Pulmonary function tests (forced spirometry) and arterial blood gas measurements were performed during the days prior to sample.
Neutrophils were isolated from peripheral blood of healthy volunteers according to standard procedures established in the laboratory (Milara J et al., Respiration 2012; 83, 147-158).
Isolated neutrophils were incubated with different drugs (MABA compound, mometasone or fluticasone) or vehicle for 30 minutes before incubation with LPS (1 mcg/mL) (Lipopolysaccharide, a representative stimulus as inflammatory mediator) for 6 hours in standard cell culture conditions (37° C. and 5% CO2). Supernatant were collected to measure IL-8 (the inflammatory marker).
IL-8 (Interleukin-8) was determined by ELISA according to the standard procedure.
Data was presented as mean±SEM. Statistical analysis of results was carried out by analysis of variance (ANOVA) followed by Bonferroni test, by Student's t test, or by non-parametric tests as appropriate (GraphPad Software Inc, San Diego, Calif., USA). Significance was accepted when P<0.05.

[1] = 30 min pre-incubation, LPS 1 mcg/mL 6 h, neutrophils from healthy subjects (5 volunteers in triplicate), Table 1

Structure (SMILES)	inhibition at 0.0001 µM (single agent 0.1 nM, IL-8 secretion induced by LPS 1 mcg/mL 6 h, neutrophils from healthy subjects, Table 2) [%]	inhibition at 10 pM [1] [%]	inhibition at 10 pM (IL-8 secretion induced by LPS 1 mcg/mL 6 h, neutrophils from healthy subjects, Table 2) [%]
C[C@@H]1C[C@H]2[C@@H]3C[C@H](F)C4=CC(=O)C=C[C@]4(C)[C@@]3(F)[C@@H](O)C[C@]2(C)[C@@]1(O)C(=O)SCF [Fluticasone, fluticasone]	10.2	–	–
COc1cc(NC(=O)OCCN(C)[C@H]2CC[C@H](OC(=O)C(O)(c3cccs3)c3cccs3)CC2)c(Cl)cc1CNC[C@H](O)c1ccc(O)c2[nH]c(=O)ccc12 [Cpd 1, trans-4-[{2-[({[2-chloro-4-({[(2R)-2-hydroxy-2-(8-hydroxy-2-oxo-1,2-dihydroquinolin-5-yl)ethyl]amino}methyl)-5-methoxyphenyl]amino}carbonyl)oxy]ethyl}-(methyl)amino]cyclohexyl hydroxy(di-2-thienyl)acetate]	–	5.6	5.6
C[C@@H]1C[C@H]2[C@@H]3CCC4=CC(=O)C=C[C@]4(C)[C@@]3(Cl)[C@@H](O)C[C@]2(C)[C@@]1(O)C(=O)CCl [Mometasone, mometasone]	–	2.85	–
